In the assay the target is T1, rat P2X3 receptor (Rattus norvegicus, UniProt P49654).
T1 construct: expressed in transfected cells; host or cells: CHO-K1
T1 sequence (P49654 1-397): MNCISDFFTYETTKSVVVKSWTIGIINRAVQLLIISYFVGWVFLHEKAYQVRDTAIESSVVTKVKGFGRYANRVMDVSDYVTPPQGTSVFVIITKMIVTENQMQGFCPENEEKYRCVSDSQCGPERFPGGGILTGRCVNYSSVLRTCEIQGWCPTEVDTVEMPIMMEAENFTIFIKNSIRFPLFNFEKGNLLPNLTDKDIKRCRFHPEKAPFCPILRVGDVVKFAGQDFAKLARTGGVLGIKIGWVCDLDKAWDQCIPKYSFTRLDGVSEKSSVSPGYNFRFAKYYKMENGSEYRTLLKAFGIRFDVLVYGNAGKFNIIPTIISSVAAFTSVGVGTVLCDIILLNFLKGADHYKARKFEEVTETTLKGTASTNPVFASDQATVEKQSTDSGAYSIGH
Briefly: P2X3 FLIPR (Fluorometric Imaging Plate Reader) assay, inhibition of α,β-meATP-evoked calcium fluorescence. Format: cell-based. Conditions: CHO-K1 cells transfected with cloned rat P2X3; agonist α,β-meATP 1 μM; Fluo-3 AM; read-out: pIC50 for the P2X3 receptor (converted). As to the method: CHO-K1 cells were transfected with cloned rat P2X3 or human P2X2/3 receptor subunits and passaged in flasks. 18-24 hours before the FLIPR experiment, cells were released from their flasks, centrifuged, and resuspended in nutrient medium at 2.5×10^5 cells/ml. The cells were aliquoted into black-walled 96-well plates at a density of 50,000 cells/well and incubated overnight in 5% CO2 at 37° C. On the day of the experiment, cells were washed in FLIPR buffer (calcium- and magnesium-free Hank's balanced salt solution, 10 mM HEPES, 2 mM CaCl2, 2.5 mM probenecid; FB). Each well received 100 μl FB and 100 μl of the fluorescent dye Fluo-3 AM [2 μM final conc.]. […]
Test compounds (dissolved in DMSO at 10 mM and serially diluted with FB) or vehicle were added to each well (25 μl of a 4× solution) and allowed to equilibrate for 20 minutes at room temperature. The plates were then placed in the FLIPR and a baseline fluorescence measurement (excitation at 488 nm and emission at 510-570 nm) was obtained for 10 seconds before a 100 μl/well agonist or vehicle addition. […] Fluorescence was measured for an additional 2 minutes at 1 second intervals after agonist addition. A final addition of ionomycin (5 μM, final concentration) was made to each well of the FLIPR test plate to establish cell viability and maximum fluorescence of dye-bound cytosolic calcium. […]

This is an account of results in patent US7741484B2, “Process for synthesis of phenoxy diaminopyrimidine derivatives” (Roche Palo Alto LLC, priority 2005, dated 2010).

In the case of `COc1cc(C(C)C)c(Oc2cnc(N)nc2N)cc1I` [5-(5-Iodo-2-isopropyl-4-methoxy-phenoxy)-pyrimidine-2,4-diamine], the IC50 is about 10 nM.
